According to US20100209934A1, “METHOD OF IDENTIFYING AGENTS WHICH MODULATE THE ACTIVITY OF CALCIUM-ACTIVATED CHLORIDE CHANNEL” (SNU R&DB FOUNDATION, priority 2007, published 2010):

Assays:
mouse ANO1 = assay: Whole-cell current recording in mouse ANO1 stable HEK cell line; format: cell-based; conditions: 500 nM ionomycin, mANO1 stable HEK cell line
Description: A stable cell line (HEK cells) that constitutively over-expresses mANO1 is constructed for high throughput screening analysis. In order to test whether the HEK cell line elicits ANO1 currents, ionomycin was applied. Application of ionomycin evoked a robust inward Cl^− currents in a whole cell. Pipette and bath solutions contained 140 mM NMDG-Cl.
HEK293 cells were transfected with pEGFP-N-1-mANO1 using Lipofectamine (Invitrogen Corp., Carlsbad, Calif.). After selection in 800 μg/ml geneticin (Invitrogen Corp., Carlsbad, Calif.) for 15 days, single colonies were picked with cloning cylinders and tested for activity of ANO1.
To detect active compounds from chemical libraries or other sources of chemicals, a stable cell line, that constitutively expresses mouse ANO1, was constructed in accordance with the method of Reference Example 7. To construct a stable cell line, mouse ANO1 DNA was incorporated to the genomic DNA of human embryonic kidney (HEK) cells.
This confirms that ANO1 is constitutively expressed in the stable cell line.

mANO1 = biological target: T1, mANO1 (Mus musculus, UniProt Q8BHY3, S527P); assay: Two-electrode voltage clamp currents in Xenopus oocytes injected with mANO1 complementary RNA; format: cell-based; design: expressed in transfected cells; host or cells: Xenopus laevis oocytes (cRNA injection); conditions: ionomycin 4 μM; mANO1 expressing oocytes
T1 sequence (Q8BHY3 1-960 S527P): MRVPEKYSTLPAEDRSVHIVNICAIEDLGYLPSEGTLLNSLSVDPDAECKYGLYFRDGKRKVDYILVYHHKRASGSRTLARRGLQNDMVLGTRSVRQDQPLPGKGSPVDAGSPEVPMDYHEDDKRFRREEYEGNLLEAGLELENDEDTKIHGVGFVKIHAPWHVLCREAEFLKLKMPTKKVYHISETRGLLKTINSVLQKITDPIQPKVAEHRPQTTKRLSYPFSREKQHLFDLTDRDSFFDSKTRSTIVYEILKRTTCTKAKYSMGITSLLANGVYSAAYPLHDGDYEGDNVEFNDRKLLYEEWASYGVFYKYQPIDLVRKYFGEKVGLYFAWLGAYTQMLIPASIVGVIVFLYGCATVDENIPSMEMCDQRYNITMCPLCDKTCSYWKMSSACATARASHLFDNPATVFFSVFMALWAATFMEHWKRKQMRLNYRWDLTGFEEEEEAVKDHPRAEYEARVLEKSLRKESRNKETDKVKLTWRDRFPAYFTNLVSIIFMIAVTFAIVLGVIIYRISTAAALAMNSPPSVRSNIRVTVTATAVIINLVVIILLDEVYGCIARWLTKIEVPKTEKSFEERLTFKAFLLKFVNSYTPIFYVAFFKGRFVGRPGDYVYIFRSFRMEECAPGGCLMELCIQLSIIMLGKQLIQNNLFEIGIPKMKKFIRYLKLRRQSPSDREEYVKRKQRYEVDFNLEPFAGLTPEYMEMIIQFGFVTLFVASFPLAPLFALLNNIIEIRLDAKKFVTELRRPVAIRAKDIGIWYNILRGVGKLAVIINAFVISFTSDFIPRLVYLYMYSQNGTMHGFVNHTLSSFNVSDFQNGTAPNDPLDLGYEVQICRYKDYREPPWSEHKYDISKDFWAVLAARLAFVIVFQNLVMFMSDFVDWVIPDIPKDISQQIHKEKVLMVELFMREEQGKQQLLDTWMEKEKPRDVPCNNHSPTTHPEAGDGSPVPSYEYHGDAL
Description: pSDTF-mANO1 obtained in Reference Example 1 was linearized using BamHI. Complementary RNA was transcribed with SP6 RNA polymerase (mMESSAGE mMACHINE® SP6 Kit, Ambion, Austin, Tex.). After being defolliculated with collagenase (Type IA, Sigma), Xenopus laevis oocytes were injected with 50 ng of the complementary RNAs of mANO1 in 50 nl of diethylpyrocarbonate-treated water. Two to five days after the injection, whole cell currents were recorded using the two-electrode voltage clamp technique. The bath solution contained 96 mM NaCl, 1 mM MgCl2, 5 mM HEPES, 2 mM KCl and 1.8 mM CaCl2 at pH 7.5 and was perfused at 2 ml/min. Experiments were performed at room temperature.
Xenopus oocytes provide a recognized model for endogenous CaCC studies because they express endogenous CaCCs that are required for ‘fertilization depolarization’ (Hartzell, H. C. et al., Mol Pharmacol 51, 683-92 (1997)). Furthermore, the biophysical and pharmacological properties of Xenopus CaCCs are similar to those of mammalian CaCCs (Machaca, K. et al., Calcium-Activated Chloride Channels (ed. Fuller, C. M.) (Academic Press, Amsterdam, 2002)). Accordingly, the present inventors expressed mANO1 in Xenopus oocytes and tested its activation by receptor stimulation using 1 μM LPA (lysophosphatidic acid). CaCCs in Xenopus are known to be activated by LPA (Guo, Z. et al., Proc Natl Acad Sci USA. 93, 14367-72 (1996); and Kim, M. J. et al., Biochem Pharmacol. 59, 241-7 (2000)). […] Moreover, LPA-induced ANO1 currents were outwardly-rectifying, like those of native CaCCs in Xenopus oocytes (Machaca, K. et al., supra) (FIG. 4C). The reversal potential was 37.7±1.05 mV (n=5), which is close to the equilibrium potential of Cl^− in Xenopus oocytes (Weber, W., Biochim Biophys Acta 1421, 213-33 (1999)).
Indeed, LPA (1 μM) applied to oocytes expressing mANO1 induced a large inward current.
Further, pretreatment of 1 μM thapsigargin blocked the IP3-induced current in a mANO1-expressing oocyte (FIGS. 10C and 10D).
LPA-induced ANO1 currents were blocked by Cl^− channel blockers. The Cl^− channel blockers were applied 10˜20 min before the LPA application. […] This blockade of agonist-induced ANO1 currents by DIDS, niflumic acid, or NPPB were also observed in mammalian cells transfected with mANO1.

Structure (SMILES): C[C@H](CCC(=O)O)C[C@H](C)C[C@H](C)C(=O)/C=C(\O)[C@H](C)C[C@H](C)C/C=C/[C@@H](C)[C@@H](O)[C@@H](C)[C@@H](O)C[C@@H]1CC[C@@](C)([C@H]2CC[C@@](C)([C@@H](C)O)O2)O1 [ionomycin]
- inward current evoked by ionomycin (mouse ANO1): robust inward current
- activation of mANO1 by Ca2+ ionophore (mANO1): Activation
